In US7205311B2, “Therapeutic acridone and acridine compounds” (Cancer Research Technology Limited, priority 2002, dated 2007):

How the values were obtained:
telomerase = experiment: Modified telomeric repeat amplification protocol (TRAP) assay, cell-free; format: biochemical; conditions: extracts from A2780 human ovarian carcinoma cells, salts, read-out: telIC50
Protocol: The ability of compounds to inhibit telomerase in a cell-free assay was assessed with a modified TRAP assay using extracts from exponentially growing A2780 human ovarian carcinoma cells. The TRAP assay was performed in 2 steps: (a) telomerase-mediated extension of the forward primer (TS: 5′-AATCCGTCGAGCAGAGTT, Oswel Ltd., Southampton, UK) contained in a 40 μL reaction mix comprising TRAP buffer (20 mM Tris-HCl (pH 8.3), 68 mM KCl, 1.5 mM MgCl2, 1 mM EGTA, 0.05% v/v Tween 20), 0.05 μg bovine serum albumin, 50 μM of each deoxynucleotide triphosphate, 0.1 μg TS primer, and […] of [α-^32P]dCTP (Amersham pic, UK). Protein (40 ng or 20 ng) was then incubated with the reaction mix+agent (acid addition and quaternary dimethiodide salts) at final concentrations of up to 50 μM for 20 min at 25° C. A lysis buffer (no protein) control, heat-inactivated protein control, and 50% protein (20 ng or 10 ng) control were included in each assay; and (b) while heating at 80° C. in a PCR block of a thermal cycler (Hybaid, UK) for 5 min to inactivate telomerase activity, 0.1 μg of reverse CX primer (3′-[…]-5′) and 2 Units of Taq DNA polymerase (“red hot”, Advanced Biotechnologies) were added. A 3-step PCR was then performed: 94° C. for 30 s, 50° C. for 30 s, and 72° C. for 1 min for 31 cycles. Telomerase-extended PCR products in the presence or absence of compounds were then determined either by electrophoretic separation using 8% w/w acrylamide denaturing gels and analysis by phosphorimaging or autoradiography, or by harvesting on Whatman filters (25 mm glass microfibre) and analysis by liquid scintillation counting.

[1] = Growth inhibition, sulforhodamine B (SRB) assay; format: cell-based; conditions: human, salts
Protocol: (§1) Growth inhibition was measured in three human ovarian carcinoma cell lines (A2780, CH1, and SKOV-3) and one human cervix carcinoma cell line (A431) using the sulforhodamine B (SRB) assay. Briefly, between 3000 and 6000 cells were seeded into the wells of 96-well microtiter plates and allowed to attach overnight. Compounds (acid addition and quaternary dimethiodide salts) were dissolved at 500 μM in water and immediately added to wells in quadruplicate at final concentrations of 0.05, 0.25, 1, 5 and 25 μM. Following an incubation period of 96 hr, remaining cells were fixed with ice-cold 10% w/v trichloroacetic acid (30 min) and stained with 0.4% SRB in 1% v/v acetic acid (15 min). Mean absorbance at 540 nm for each drug concentration was expressed as a percentage of the control untreated well absorbance, and IC50 values (concentration required to inhibit cell growth by 50%) were determined for each agent.

[2] = Growth inhibition, SRB assay, mean over the four cell lines; format: cell-based; conditions: human, mean of A2780, CH1, SKOV-3, A431, 96 hr incubation, salts, read-out: Cytotoxicity - IC50, mean value for the four (4) cell lines
Protocol: as §1

[3] = A431 cervix carcinoma cells, A431, 96 hr incubation, read-out: Cytotoxicity - IC50 A431
[4] = A2780 ovarian carcinoma cells, A2780, 96 hr incubation, read-out: Cytotoxicity - IC50 A2780
[5] = CH1 ovarian carcinoma cells, CH1, 96 hr incubation, read-out: Cytotoxicity - IC50 CH1
[6] = SKOV-3 ovarian carcinoma cells, SKOV-3, 96 hr incubation, read-out: Cytotoxicity - IC50 SKOV-3

| SMILES | IC50 (telomerase) | IC50 at 96 h [1, 3] | IC50 at 96 h [1, 4] | IC50 at 96 h [1, 5] | IC50 at 96 h [1, 6] | IC50 at 96 h [2] |
| --- | --- | --- | --- | --- | --- | --- |
| CC(C)N(CCNc1ccc2cc3ccc(NCCN(C(C)C)C(C)C)cc3nc2c1)C(C)C [SB-ACI-06, 3,6-Bis[(N,N-diisoproyplaminoethyl)amino]acridine] | 590 nM | 1000 nM | 400 nM | 600 nM | 1300 nM | – |
| CCN(CC)CCNc1ccc2cc3ccc(NCCN(CC)CC)cc3nc2c1 [SB-ACI-05, 3,6-Bis[(N,N-diethylaminoethyl)amino]acridine] | 540 nM | 200 nM | 100 nM | 200 nM | 700 nM | – |
| CN(C)CCNc1ccc2cc3ccc(NCCN(C)C)cc3nc2c1 [SB-ACI-10, 3,6-Bis[(N,N-dimethylaminoethyl)amino]acridine] | 480 nM | 200 nM | 200 nM | 100 nM | 200 nM | – |
| c1ccc(NCCCNc2ccc3cc4ccc(NCCCNc5ccccc5)cc4nc3c2)cc1 [SB-ACI-27, 3,6-Bis[(3-phenylamino)propylamino]acridine] | 16800 nM | – | – | – | – | 1700 nM |
| CCN(CC)CCCNc1ccc2cc3ccc(NCCCN(CC)CC)cc3nc2c1 [SB-ACI-24, 3,6-Bis[(3-diethylamino)propylamino]acridine] | 222 nM | – | – | – | – | 1800 nM |
| c1cc2cc3ccc(NCCCN4CCCCC4)cc3nc2cc1NCCCN1CCCCC1 [SB-ACI-25, 3,6-Bis[(3-piperidino)propylamino]acridine] | 218 nM | – | – | – | – | 500 nM |

The next compounds have a lower IC50 (telomerase) than those just listed; values first:

| IC50 (telomerase) | SMILES | IC50 at 96 h [1, 3] | IC50 at 96 h [1, 4] | IC50 at 96 h [1, 5] | IC50 at 96 h [1, 6] | IC50 at 96 h [2] |
| --- | --- | --- | --- | --- | --- | --- |
| 205 nM | CCN(CC)CCCCNc1ccc2cc3ccc(NCCCCN(CC)CC)cc3nc2c1 [SB-ACI-28, 3,6-Bis[(4-diethylamino)butylamino]-acridine] | – | – | – | – | 6300 nM |
| 200 nM | CN(C)CCCNc1ccc2cc3ccc(NCCCN(C)C)cc3nc2c1 [SB-ACI-04, 3,6-Bis[(N,N-dimethylaminopropyl)amino]acridine] | 700 nM | 1800 nM | 2000 nM | 3900 nM | – |
| 181 nM | c1cc2cc3ccc(NCCCN4CCCC4)cc3nc2cc1NCCCN1CCCC1 [SB-ACI-23, 3,6-Bis[(3-pyrolidino)propylamino]acridine] | – | – | – | – | 1600 nM |
| 153 nM | c1cc2cc3ccc(NCCCCN4CCCC4)cc3nc2cc1NCCCCN1CCCC1 [SB-ACI-26, 3,6-Bis[(4-pyrolidino)butylamino]acridine] | – | – | – | – | 2500 nM |
